The supplement of paper PMC10307832

How the values were obtained:
Experiment in all cases: relative viability (nuclei count vs DMSO), 5 days (fraction); higher = more cells survive
[1] = tested on: A-427
Procedure, shortened: (§1)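 For relative viability, nuclei counts in treated wells were divided by those in vehicle wells. Lung cancer cell lines had been pin-tool dosed in 1536-well plates the day after seeding and cultured for 5 days, then fixed and stained in one step (final 0.05% Triton X-100, 1% formaldehyde, 1 ug/ml Hoechst) and imaged at 4×. Doses were one drug alone or a fixed anchor-drug dose plus five library-drug doses (not always all listed) in √10 steps, and values are duplicate-plate medians.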

[2] = tested on: COR-L 105
Procedure, shortened: as §1

[3] = tested on: EPLC-272H
Procedure, shortened: as §1

[4] = tested on: HCC-366
Procedure, shortened: as §1

[5] = tested on: HCC-78
Procedure, shortened: as §1

[6] = tested on: HOP-62
Procedure, shortened: as §1

[7] = tested on: LC-2-ad
Procedure, shortened: as §1

[8] = tested on: LCLC-97TM1
Procedure, shortened: as §1

[9] = tested on: LU99A
Procedure, shortened: as §1

[10] = tested on: LXF-289
Procedure, shortened: as §1

[11] = tested on: NCI-H1755
Procedure, shortened: as §1

[12] = tested on: NCI-H1792
Procedure, shortened: as §1

[13] = tested on: NCI-H1915
Procedure, shortened: as §1

[14] = tested on: NCI-H1944
Procedure, shortened: as §1

[15] = tested on: NCI-H1975
Procedure, shortened: as §1

[16] = tested on: NCI-H2085
Procedure, shortened: as §1

[17] = tested on: NCI-H2170
Procedure, shortened: as §1

[18] = tested on: NCI-H358
Procedure, shortened: as §1

[19] = tested on: NCI-H460
Procedure, shortened: as §1

[20] = tested on: SK-LU-1
Procedure, shortened: as §1

[21] = tested on: UMC-11
Procedure, shortened: as §1

[22] = tested on: NCI-H1793
Procedure, shortened: as §1

## CC(C)Oc1cc(Nc2nc(N[C@@H](C)c3ccc(F)cn3)ncc2Cl)n[nH]1 [AZ23] + C[C@@H](Oc1cc(-c2cnn(C3CCNCC3)c2)cnc1N)c1c(Cl)ccc(F)c1Cl [Crizotinib] (partner 1 µM)
[1]; first compound 0.01 µM
  relative viability: 0.942
[1]; first compound 0.03162 µM
  relative viability: 0.951
[1]; first compound 0.3162 µM
  relative viability: 0.754
[2]; first compound 0.01 µM
  relative viability: 0.618
[2]; first compound 0.03162 µM
  relative viability: 0.825
[2]; first compound 0.3162 µM
  relative viability: 0.786
[3]; first compound 0.01 µM
  relative viability: 1.19
[3]; first compound 0.03162 µM
  relative viability: 1.19
[4]; first compound 0.01 µM
  relative viability: 0.688
[4]; first compound 0.03162 µM
  relative viability: 1.05
[4]; first compound 0.3162 µM
  relative viability: 0.587
[5]; first compound 0.01 µM
  relative viability: 0.318
[5]; first compound 0.03162 µM
  relative viability: 0.39
[5]; first compound 0.3162 µM
  relative viability: 0.336
[6]; first compound 0.01 µM
  relative viability: 0.992
[6]; first compound 0.03162 µM
  relative viability: 0.912
[6]; first compound 0.3162 µM
  relative viability: 1.08
[7]; first compound 0.01 µM
  relative viability: 0.471
[7]; first compound 0.03162 µM
  relative viability: 0.458
[7]; first compound 0.3162 µM
  relative viability: 0.436
[8]; first compound 0.01 µM
  relative viability: 0.424
[8]; first compound 0.03162 µM
  relative viability: 0.527
[8]; first compound 0.3162 µM
  relative viability: 0.305
[9]; first compound 0.01 µM
  relative viability: 0.617
[9]; first compound 0.03162 µM
  relative viability: 0.563
[9]; first compound 0.3162 µM
  relative viability: 0.6
[10]; first compound 0.01 µM
  relative viability: 0.862
[10]; first compound 0.03162 µM
  relative viability: 0.859
[10]; first compound 0.3162 µM
  relative viability: 0.79
[11]; first compound 0.01 µM
  relative viability: 1.1
[11]; first compound 0.03162 µM
  relative viability: 1.01
[11]; first compound 0.3162 µM
  relative viability: 0.964
[12]; first compound 0.01 µM
  relative viability: 1.47
[12]; first compound 0.03162 µM
  relative viability: 1.27
[12]; first compound 0.3162 µM
  relative viability: 1.01
[13]; first compound 0.01 µM
  relative viability: 1.28
[13]; first compound 0.03162 µM
  relative viability: 0.936
[13]; first compound 0.3162 µM
  relative viability: 0.979
[14]; first compound 0.01 µM
  relative viability: 1.11
[14]; first compound 0.03162 µM
  relative viability: 1.18
[14]; first compound 0.3162 µM
  relative viability: 1.17
[15]; first compound 0.01 µM
  relative viability: 1.44
[15]; first compound 0.03162 µM
  relative viability: 0.953
[15]; first compound 0.3162 µM
  relative viability: 1.09
[16]; first compound 0.01 µM
  relative viability: 1.03
[16]; first compound 0.03162 µM
  relative viability: 0.94
[16]; first compound 0.3162 µM
  relative viability: 0.838
[17]; first compound 0.01 µM
  relative viability: 1.67
[17]; first compound 0.03162 µM
  relative viability: 1.45
[17]; first compound 0.3162 µM
  relative viability: 1.42
[18]; first compound 0.01 µM
  relative viability: 0.522
[18]; first compound 0.03162 µM
  relative viability: 0.781
[18]; first compound 0.3162 µM
  relative viability: 0.654
[19]; first compound 0.01 µM
  relative viability: 0.827
[19]; first compound 0.03162 µM
  relative viability: 1.04
[19]; first compound 0.3162 µM
  relative viability: 0.834
[20]; first compound 0.01 µM
  relative viability: 0.94
[20]; first compound 0.03162 µM
  relative viability: 1.05
[20]; first compound 0.3162 µM
  relative viability: 0.978
[21]; first compound 0.01 µM
  relative viability: 0.552
[21]; first compound 0.03162 µM
  relative viability: 0.73
[21]; first compound 0.3162 µM
  relative viability: 0.555

## COc1cc(N2CCC(C(N)=O)CC2)ccc1Nc1nc(N)c(Cl)c(Nc2ccccc2S(=O)(=O)C(C)C)n1 [HG-5-88-01] + C[C@]1(O)C[C@@H](c2nc(-c3ccc4ccc(-c5ccccc5)nc4c3)c3c(N)nccn32)C1 [Linsitinib] (partner 1 µM)
[1]; first compound 0.04 µM
  relative viability: 1.07
[1]; first compound 0.1265 µM
  relative viability: 1.11
[1]; first compound 0.4 µM
  relative viability: 1.15
[1]; first compound 1.265 µM
  relative viability: 1.14
[1]; first compound 4 µM
  relative viability: 1.09
[2]; first compound 0.04 µM
  relative viability: 0.921
[2]; first compound 0.1265 µM
  relative viability: 0.966
[2]; first compound 0.4 µM
  relative viability: 1.04
[2]; first compound 1.265 µM
  relative viability: 0.961
[2]; first compound 4 µM
  relative viability: 0.751
[3]; first compound 0.04 µM
  relative viability: 1.09
[3]; first compound 0.1265 µM
  relative viability: 1.25
[3]; first compound 0.4 µM
  relative viability: 1.38
[3]; first compound 1.265 µM
  relative viability: 1.02
[3]; first compound 4 µM
  relative viability: 0.264
[4]; first compound 0.04 µM
  relative viability: 0.573
[4]; first compound 0.1265 µM
  relative viability: 0.558
[4]; first compound 0.4 µM
  relative viability: 0.492
[4]; first compound 1.265 µM
  relative viability: 0.608
[4]; first compound 4 µM
  relative viability: 0.912
[5]; first compound 0.04 µM
  relative viability: 0.574
[5]; first compound 0.1265 µM
  relative viability: 0.401
[5]; first compound 0.4 µM
  relative viability: 0.273
[5]; first compound 1.265 µM
  relative viability: 0.222
[5]; first compound 4 µM
  relative viability: 0.263
[6]; first compound 0.04 µM
  relative viability: 0.978
[6]; first compound 0.1265 µM
  relative viability: 1.04
[6]; first compound 0.4 µM
  relative viability: 0.821
[6]; first compound 1.265 µM
  relative viability: 0.938
[6]; first compound 4 µM
  relative viability: 1.23
[7]; first compound 0.04 µM
  relative viability: 0.817
[7]; first compound 0.1265 µM
  relative viability: 0.861
[7]; first compound 0.4 µM
  relative viability: 0.862
[7]; first compound 1.265 µM
  relative viability: 0.852
[7]; first compound 4 µM
  relative viability: 0.92
[8]; first compound 0.04 µM
  relative viability: 0.183
[8]; first compound 0.1265 µM
  relative viability: 0.201
[8]; first compound 0.4 µM
  relative viability: 0.18
[8]; first compound 1.265 µM
  relative viability: 0.152
[8]; first compound 4 µM
  relative viability: 0.158
[9]; first compound 0.04 µM
  relative viability: 0.552
[9]; first compound 0.1265 µM
  relative viability: 0.535
[9]; first compound 0.4 µM
  relative viability: 0.531
[9]; first compound 1.265 µM
  relative viability: 0.578
[9]; first compound 4 µM
  relative viability: 0.589
[10]; first compound 0.04 µM
  relative viability: 0.94
[10]; first compound 0.1265 µM
  relative viability: 1
[10]; first compound 0.4 µM
  relative viability: 0.961
[10]; first compound 1.265 µM
  relative viability: 0.973
[10]; first compound 4 µM
  relative viability: 1.04
[11]; first compound 0.1265 µM
  relative viability: 0.902
[11]; first compound 0.4 µM
  relative viability: 1.01
[11]; first compound 1.265 µM
  relative viability: 0.983
[11]; first compound 4 µM
  relative viability: 1.09
[12]; first compound 0.04 µM
  relative viability: 0.711
[12]; first compound 0.1265 µM
  relative viability: 0.513
[12]; first compound 0.4 µM
  relative viability: 0.515
[12]; first compound 1.265 µM
  relative viability: 0.561
[12]; first compound 4 µM
  relative viability: 0.818
[22]; first compound 0.1265 µM
  relative viability: 1.05
[22]; first compound 0.4 µM
  relative viability: 0.856
[22]; first compound 1.265 µM
  relative viability: 0.809
[22]; first compound 4 µM
  relative viability: 1.18
[13]; first compound 0.04 µM
  relative viability: 1.09
[13]; first compound 0.1265 µM
  relative viability: 1.11
[13]; first compound 0.4 µM
  relative viability: 1.14
[13]; first compound 1.265 µM
  relative viability: 1.15
[13]; first compound 4 µM
  relative viability: 0.674
[14]; first compound 0.04 µM
  relative viability: 1.14
[14]; first compound 0.1265 µM
  relative viability: 1.19
[14]; first compound 0.4 µM
  relative viability: 1.19
[14]; first compound 1.265 µM
  relative viability: 0.803
[14]; first compound 4 µM
  relative viability: 1.31
[15]; first compound 0.04 µM
  relative viability: 0.995
[15]; first compound 0.1265 µM
  relative viability: 1
[15]; first compound 0.4 µM
  relative viability: 0.682
[15]; first compound 1.265 µM
  relative viability: 0.859
[15]; first compound 4 µM
  relative viability: 0.497
[16]; first compound 0.04 µM
  relative viability: 0.913
[16]; first compound 0.1265 µM
  relative viability: 0.924
[16]; first compound 0.4 µM
  relative viability: 0.809
[16]; first compound 1.265 µM
  relative viability: 0.748
[16]; first compound 4 µM
  relative viability: 0.92
[18]; first compound 0.04 µM
  relative viability: 0.696
[18]; first compound 0.1265 µM
  relative viability: 0.707
[18]; first compound 0.4 µM
  relative viability: 0.625
[18]; first compound 1.265 µM
  relative viability: 0.484
[18]; first compound 4 µM
  relative viability: 0.387
[19]; first compound 0.04 µM
  relative viability: 0.73
[19]; first compound 0.1265 µM
  relative viability: 0.81
[19]; first compound 0.4 µM
  relative viability: 0.784
[19]; first compound 1.265 µM
  relative viability: 0.81
[19]; first compound 4 µM
  relative viability: 1.41
[20]; first compound 0.04 µM
  relative viability: 1.02
[20]; first compound 0.1265 µM
  relative viability: 1
[20]; first compound 0.4 µM
  relative viability: 1.09
[20]; first compound 1.265 µM
  relative viability: 1.21
[20]; first compound 4 µM
  relative viability: 0.996
[21]; first compound 0.04 µM
  relative viability: 1.03
[21]; first compound 0.1265 µM
  relative viability: 0.931
[21]; first compound 0.4 µM
  relative viability: 0.698
[21]; first compound 1.265 µM
  relative viability: 1.01
[21]; first compound 4 µM
  relative viability: 1.1
